Laboratory results reported in patent US11596692B1 (Incyte Corporation, priority 2018, dated 2023).
Where two headings read alike, the source gives them in different places.

Test system: IRF3
Test: IRF3 activation assay in THP-1 Dual cells
Assay type: cell-based
Details: Homo sapiens, read-out: THP1 IRF3 EC50
Experimental: THP-1 Dual Cells (Invivogen) were maintained in RPMI1640 medium with addition of 10% FBS, 100 μg/ml zeocin, 10 μg/ml blasticidin. Cells were added in a 96-well flat bottom assay plate at 100,000 per well in 100 μL complete RPMI medium. Test compounds were prepared by serial dilution in complete RPMI medium and 100 μL test compounds were transferred to each corresponding well. The assay plate was incubated at 37° C., 5% CO2 for 24 hours. After the overnight incubation, 20 μL of the culture supernatants were collected, followed by addition of 180 μL of QUANTI-Blue (Invivogen) to assess IRF3 activity. The amount of IRF3 activation was assessed by reading the absorbance at 620-655 nm with a microplate reader 2 hours later. The culture supernatant from the untreated THP-1 cells was used as the negative control. EC50 determination was performed by fitting the curve of percent control activity versus the log of the compound concentration using the GraphPad Prism 6.0 software.

SMILES	EC50 (THP-1, Table 4C)	EC50 (THP-1, Table 4A)	EC50 (THP-1, Table 4B)
CCn1nc(C)cc1C(=O)Nc1nc2cc(C(N)=O)cc(OCCCOC(=O)NCCC(=O)O)c2n1C/C=C/Cn1c2nc(-c3cc(C)nn3CC)ncc2c2cc(C(N)=O)cc(OCCOCCOCCC(=O)O)c21 [Example S63, (E)-3-(((3-((5-carbamoyl-1-(4-(6-carbamoyl-8-(2-(2-(2-carboxyethoxy)ethoxy)ethoxy)-2-(1-ethyl-3-methyl-1H-pyrazol-5-yl)-9H-pyrimido[4,5-b]indol-9-yl)but-2-en-1-yl)-2-(1-ethyl-3-methyl-1H-pyrazole-5-carboxamido)-1H-benzo[d]imidazol-7-yl)oxy)propoxy)carbonyl)amino)propanoic acid]	200 to 500 nM	–	–
CCn1nc(C)cc1C(=O)Nc1nc2cc(C(N)=O)cc(OCCCO)c2n1C/C=C/Cn1c2nc(-c3cc(C)nn3CC)ncc2c2cc(C(N)=O)cc(OCCCNC(=O)CCCC(=O)O)c21 [Example S53, (E)-5-(3-(6-carbamoyl-9-(4-(5-carbamoyl-2-(1-ethyl-3-methyl-1H-pyrazole-5-carboxamido)-7-(3-hydroxypropoxy)-1H-benzo[d]imidazol-1-yl)but-2-enyl)-2-(1-ethyl-3-methyl-1H-pyrazol-5-yl)-9H-pyrimido[4,5-b]indol-8-yloxy)propylamino)-5-oxopentanoic acid]	≤ 50 nM	–	–
CCn1nc(C)cc1C(=O)Nc1nc2cc(C(N)=O)cc(OCCCO)c2n1C/C=C/Cn1c2nc(-c3cc(C)nn3CC)ncc2c2cc(C(N)=O)cc(OC)c21 [Example S16, (E)-9-(4-(5-carbamoyl-2-(1-ethyl-3-methyl-1H-pyrazole-5-carboxamido)-7-(3-hydroxypropoxy)-1H-benzo[d]imidazol-1-yl)but-2-en-1-yl)-2-(1-ethyl-3-methyl-1H-pyrazol-5-yl)-8-methoxy-9H-pyrimido[4,5-b]indole-6-carboxamide]	≤ 50 nM	≤ 100 nM	< 200 nM
CCn1nc(C)cc1C(=O)Nc1nc2cc(C(N)=O)cc(OCCCO)c2n1C/C=C/Cn1c2ccc(C(N)=O)cc2c2cnc(-c3cc(C)nn3CC)nc21 [Example S18, (E)-9-(4-(5-carbamoyl-2-(1-ethyl-3-methyl-1H-pyrazole-5-carboxamido)-7-(3-hydroxypropoxy)-1H-benzo[d]imidazol-1-yl)but-2-en-1-yl)-2-(1-ethyl-3-methyl-1H-pyrazol-5-yl)-9H-pyrimido[4,5-b]indole-6-carboxamide]	≤ 50 nM	≤ 100 nM	< 200 nM
CCn1nc(C)cc1-c1ncc2c3cc(C(N)=O)cc(OC)c3n(C/C=C/Cn3c4nc(-c5cc(C)nn5CC)ncc4c4cc(C(N)=O)cc(OC)c43)c2n1 [Example S29, (E)-9,9′-(but-2-ene-1,4-diyl)bis(2-(1-ethyl-3-methyl-1H-pyrazol-5-yl)-8-methoxy-9H-pyrimido[4,5-b]inclole-6-carboxamide)]	–	≤ 100 nM	–
CCn1nc(C)cc1C(=O)Nc1nc2cc(C(N)=O)cc(OCCCOC(=O)c3cc(C)nn3CC)c2n1C/C=C/Cn1c2nc(-c3cc(C)nn3CC)ncc2c2cc(C(N)=O)cc(OC)c21 [Example S15, (E)-3-((5-carbamoyl-1-(4-(6-carbamoyl-2-(1-ethyl-3-methyl-1H-pyrazol-5-yl)-8-methoxy-9H-pyrimido[4,5-b]indol-9-yl)but-2-en-1-yl)-2-(1-ethyl-3-methyl-1H-pyrazole-5-carboxamido)-1H-benzo[d]imidazol-7-yl)oxy)propyl 1-ethyl-3-methyl-1H-pyrazole-5-carboxylate]	≤ 50 nM	≤ 100 nM	< 200 nM
CCn1nc(C)cc1C(=O)Nc1nc2cc(C(N)=O)cc(OCCCOC(=O)NCCC(=O)O)c2n1C/C=C/Cn1c(NC(=O)c2cc(C)nn2CC)nc2cc(C(N)=O)c3ccoc3c21 [Example S66, (E)-3-(((3-((5-carbamoyl-1-(4-(5-carbamoyl-2-(1-ethyl-3-methyl-1H-pyrazole-5-carboxamido)-1H-benzofuro[6,7-d]imidazol-1-yl)but-2-en-1-yl)-2-(1-ethyl-3-methyl-1H-pyrazole-5-carboxamido)-1H-benzo[d]imidazol-7-yl)oxy)propoxy)carbonyl)amino)propanoic acid]	–	≤ 100 nM	–
